Assay results: ChEMBL document CHEMBL5149994, “Anticancer potential of indirubins in medicinal chemistry: Biological activity, structural modification, and structure-activity relationship” (Eur J Med Chem, 2021)
pIC50: −log10 of the molar value. Values after ≈ are worked out from the molar mass of the structure shown.

Columns and labels:
Aurora kinase B = Aurora kinase B (Homo sapiens, UniProt Q96GD4); assay: Inhibition of Aurora B (unknown origin)
[1] = Antiproliferative activity against human TT cells assessed as cell growth inhibition measured after 48 hrs by Cell titer-Glo assay; format: functional, cell-based
[2] = biological target: Glycogen synthase kinase-3 (Sus scrofa, UniProt B2LUN4+I6LNT8); assay: Inhibition of porcine brain GSK-3alpha/beta incubated for 30 mins in presence of [33p]-gamma ATP by scintillation counter analysis
Aurora kinase C = Aurora kinase C (Homo sapiens, UniProt Q9UQB9); assay: Inhibition of Aurora C (unknown origin)
Chain of Aurora kinase C (Q9UQB9 whole entry): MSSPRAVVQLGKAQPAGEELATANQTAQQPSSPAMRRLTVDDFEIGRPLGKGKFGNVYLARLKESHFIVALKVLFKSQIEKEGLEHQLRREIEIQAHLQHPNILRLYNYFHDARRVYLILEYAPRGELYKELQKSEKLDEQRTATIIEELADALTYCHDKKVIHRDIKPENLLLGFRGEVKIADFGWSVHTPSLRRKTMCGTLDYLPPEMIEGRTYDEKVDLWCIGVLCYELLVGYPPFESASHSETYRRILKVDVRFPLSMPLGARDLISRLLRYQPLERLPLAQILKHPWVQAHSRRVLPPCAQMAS

LXFL 529 = assay: Antiproliferative activity against human LXFL 529 cells assessed as cell growth inhibition; format: functional, cell-based
HCT-116 = assay: Antiproliferative activity against human HCT-116 cells assessed as cell growth inhibition; format: functional, cell-based
MCF7 [3] = assay: Antiproliferative activity against human MCF7 cells assessed as cell growth inhibition; format: functional, cell-based
[4] = Inhibition of starfish oocyte CDK1/Cyclin B using histone H1 as substrate incubated for 10 mins in presence of [gamma-32P]ATP by scintillation counter analysis; design: species or system Marthasterias glacialis
[5] = biological target: T1, Cyclin-dependent kinase 5/CDK5 activator 1 (Homo sapiens, UniProt Q00535); assay: Inhibition of CDK5/p35 (unknown origin); format: protein-complex assay
T1 sequence (Q00535 whole entry): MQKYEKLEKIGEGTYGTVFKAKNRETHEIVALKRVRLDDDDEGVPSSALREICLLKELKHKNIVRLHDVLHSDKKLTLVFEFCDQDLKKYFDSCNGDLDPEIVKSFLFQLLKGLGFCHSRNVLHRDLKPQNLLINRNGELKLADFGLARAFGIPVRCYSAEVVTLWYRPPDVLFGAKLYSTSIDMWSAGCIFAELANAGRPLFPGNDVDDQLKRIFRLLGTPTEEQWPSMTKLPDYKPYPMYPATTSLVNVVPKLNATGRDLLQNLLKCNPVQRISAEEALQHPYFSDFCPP
T1 sequence (Q15078 whole entry, further chain): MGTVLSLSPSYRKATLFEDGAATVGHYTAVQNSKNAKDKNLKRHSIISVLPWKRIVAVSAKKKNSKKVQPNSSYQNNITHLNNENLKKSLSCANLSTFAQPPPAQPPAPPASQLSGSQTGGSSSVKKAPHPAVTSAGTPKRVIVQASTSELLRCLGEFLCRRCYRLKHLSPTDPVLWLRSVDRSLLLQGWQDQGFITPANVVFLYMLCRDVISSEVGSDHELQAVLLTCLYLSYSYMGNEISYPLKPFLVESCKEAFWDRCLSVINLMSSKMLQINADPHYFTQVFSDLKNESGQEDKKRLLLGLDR

[6] = biological target: Glycogen synthase kinase-3 (Homo sapiens, UniProt P49840+P49841); assay: Inhibition of GSK3 (unknown origin); format: protein assay
Aurora kinase A = Aurora kinase A (Homo sapiens, UniProt O14965); assay: Inhibition of Aurora A (unknown origin)
SK-N-SH = assay: Antiproliferative activity against human SK-N-SH cells assessed as cell growth inhibition; format: functional, cell-based
IMR-32 = assay: Antiproliferative activity against human IMR-32 cells assessed as cell growth inhibition; format: functional, cell-based
[7] = biological target: T2, Tyrosine-protein kinase JAK2 (Homo sapiens, UniProt O60674); assay: Inhibition of recombinant JAK2 (unknown origin)
T2 sequence (O60674 whole entry): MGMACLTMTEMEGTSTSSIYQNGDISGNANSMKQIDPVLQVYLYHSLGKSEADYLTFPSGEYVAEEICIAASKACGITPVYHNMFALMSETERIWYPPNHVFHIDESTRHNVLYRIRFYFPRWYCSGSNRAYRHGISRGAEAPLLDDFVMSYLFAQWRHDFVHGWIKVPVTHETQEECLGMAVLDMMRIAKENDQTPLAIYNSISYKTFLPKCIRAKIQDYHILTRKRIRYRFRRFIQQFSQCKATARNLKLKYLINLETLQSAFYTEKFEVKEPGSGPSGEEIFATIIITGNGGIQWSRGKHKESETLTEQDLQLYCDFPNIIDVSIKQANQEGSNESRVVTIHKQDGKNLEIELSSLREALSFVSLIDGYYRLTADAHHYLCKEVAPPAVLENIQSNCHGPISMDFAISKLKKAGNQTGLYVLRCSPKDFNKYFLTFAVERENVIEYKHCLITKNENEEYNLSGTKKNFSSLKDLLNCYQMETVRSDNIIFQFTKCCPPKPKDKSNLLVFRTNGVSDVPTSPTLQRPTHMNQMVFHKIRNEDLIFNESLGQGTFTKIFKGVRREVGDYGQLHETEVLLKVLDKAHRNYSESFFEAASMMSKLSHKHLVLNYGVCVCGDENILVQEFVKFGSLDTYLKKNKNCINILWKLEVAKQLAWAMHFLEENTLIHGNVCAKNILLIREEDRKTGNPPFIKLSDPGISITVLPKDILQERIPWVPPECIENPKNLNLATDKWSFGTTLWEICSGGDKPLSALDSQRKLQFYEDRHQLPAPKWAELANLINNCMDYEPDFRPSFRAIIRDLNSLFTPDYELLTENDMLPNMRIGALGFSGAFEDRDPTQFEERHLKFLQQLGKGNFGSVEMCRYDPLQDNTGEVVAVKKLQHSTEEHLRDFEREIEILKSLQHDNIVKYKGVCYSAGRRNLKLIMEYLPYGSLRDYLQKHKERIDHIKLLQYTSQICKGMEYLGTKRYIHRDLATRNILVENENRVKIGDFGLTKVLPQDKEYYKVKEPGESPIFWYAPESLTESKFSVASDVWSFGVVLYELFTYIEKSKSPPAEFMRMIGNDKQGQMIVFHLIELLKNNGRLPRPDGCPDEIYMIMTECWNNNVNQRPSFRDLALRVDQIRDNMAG

[8] = biological target: Non-receptor tyrosine-protein kinase TYK2 (Homo sapiens, UniProt P29597); assay: Inhibition of recombinant Tyk2 (unknown origin)
Chain of Non-receptor tyrosine-protein kinase TYK2 (P29597 whole entry): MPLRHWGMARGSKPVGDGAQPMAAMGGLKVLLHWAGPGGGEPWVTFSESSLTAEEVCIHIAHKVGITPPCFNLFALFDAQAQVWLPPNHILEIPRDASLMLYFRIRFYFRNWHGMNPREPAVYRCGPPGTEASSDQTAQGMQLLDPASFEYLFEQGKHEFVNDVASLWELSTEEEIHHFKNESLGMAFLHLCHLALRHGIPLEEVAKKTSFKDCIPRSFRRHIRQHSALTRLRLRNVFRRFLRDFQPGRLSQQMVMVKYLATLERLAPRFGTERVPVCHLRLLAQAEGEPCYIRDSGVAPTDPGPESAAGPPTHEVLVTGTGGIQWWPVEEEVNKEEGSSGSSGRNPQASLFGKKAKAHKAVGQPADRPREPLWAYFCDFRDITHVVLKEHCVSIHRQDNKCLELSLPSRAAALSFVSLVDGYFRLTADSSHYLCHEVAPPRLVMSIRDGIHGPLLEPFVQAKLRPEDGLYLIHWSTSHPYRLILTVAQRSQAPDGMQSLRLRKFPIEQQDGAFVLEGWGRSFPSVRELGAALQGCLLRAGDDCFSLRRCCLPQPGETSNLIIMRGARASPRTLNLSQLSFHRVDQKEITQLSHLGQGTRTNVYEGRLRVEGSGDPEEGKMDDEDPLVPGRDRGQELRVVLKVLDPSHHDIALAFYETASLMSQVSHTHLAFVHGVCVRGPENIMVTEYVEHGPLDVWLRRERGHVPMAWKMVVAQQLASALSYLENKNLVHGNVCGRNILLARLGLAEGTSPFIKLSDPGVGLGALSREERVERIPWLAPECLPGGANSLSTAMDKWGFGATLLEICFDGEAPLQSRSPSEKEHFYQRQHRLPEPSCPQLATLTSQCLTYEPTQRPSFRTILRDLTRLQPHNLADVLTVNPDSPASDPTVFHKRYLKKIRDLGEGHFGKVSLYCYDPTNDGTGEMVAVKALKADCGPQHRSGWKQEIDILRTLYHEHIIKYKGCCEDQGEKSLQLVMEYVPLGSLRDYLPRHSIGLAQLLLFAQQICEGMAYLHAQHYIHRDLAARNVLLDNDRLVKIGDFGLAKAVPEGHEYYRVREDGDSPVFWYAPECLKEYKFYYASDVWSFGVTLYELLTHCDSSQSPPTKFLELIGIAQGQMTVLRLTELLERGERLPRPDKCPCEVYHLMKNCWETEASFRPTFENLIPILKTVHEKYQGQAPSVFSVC

[9] = biological target: Tyrosine-protein kinase JAK1 (Homo sapiens, UniProt P23458); assay: Inhibition of recombinant JAK1 (unknown origin)
MIA PaCa-2 = assay: Antiproliferative activity against human MIA PaCa-2 cells assessed as cell growth inhibition measured after 42 hrs by MTS assay; format: functional, cell-based; details: MIA PaCa-2, 42 h
[10] = biological target: Tyrosine-protein kinase HCK (Homo sapiens, UniProt P08631); assay: Inhibition of recombinant Hck (unknown origin)
Chain of Tyrosine-protein kinase HCK (P08631 whole entry): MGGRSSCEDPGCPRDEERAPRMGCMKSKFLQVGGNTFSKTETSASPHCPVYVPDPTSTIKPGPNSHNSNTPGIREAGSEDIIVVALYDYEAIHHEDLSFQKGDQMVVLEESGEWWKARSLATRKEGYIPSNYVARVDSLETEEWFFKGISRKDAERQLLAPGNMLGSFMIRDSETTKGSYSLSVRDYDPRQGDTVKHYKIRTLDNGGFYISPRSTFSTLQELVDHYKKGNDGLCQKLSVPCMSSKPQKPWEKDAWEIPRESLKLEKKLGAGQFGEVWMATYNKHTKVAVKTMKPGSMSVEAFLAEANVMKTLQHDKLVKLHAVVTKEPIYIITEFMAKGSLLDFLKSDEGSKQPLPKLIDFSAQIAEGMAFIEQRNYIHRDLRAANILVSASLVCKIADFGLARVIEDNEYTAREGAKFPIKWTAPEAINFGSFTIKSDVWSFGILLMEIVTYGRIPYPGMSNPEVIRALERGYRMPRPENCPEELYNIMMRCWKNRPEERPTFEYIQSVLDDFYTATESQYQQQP

BXPC-3 = assay: Antiproliferative activity against human BXPC-3 cells assessed as cell growth inhibition measured after 42 hrs by MTS assay; format: functional, cell-based; details: BXPC-3, 42 h
[11] = biological target: Tyrosine-protein kinase Lyn (Homo sapiens, UniProt P07948); assay: Inhibition of recombinant Lyn (unknown origin)
Chain of Tyrosine-protein kinase Lyn (P07948 whole entry): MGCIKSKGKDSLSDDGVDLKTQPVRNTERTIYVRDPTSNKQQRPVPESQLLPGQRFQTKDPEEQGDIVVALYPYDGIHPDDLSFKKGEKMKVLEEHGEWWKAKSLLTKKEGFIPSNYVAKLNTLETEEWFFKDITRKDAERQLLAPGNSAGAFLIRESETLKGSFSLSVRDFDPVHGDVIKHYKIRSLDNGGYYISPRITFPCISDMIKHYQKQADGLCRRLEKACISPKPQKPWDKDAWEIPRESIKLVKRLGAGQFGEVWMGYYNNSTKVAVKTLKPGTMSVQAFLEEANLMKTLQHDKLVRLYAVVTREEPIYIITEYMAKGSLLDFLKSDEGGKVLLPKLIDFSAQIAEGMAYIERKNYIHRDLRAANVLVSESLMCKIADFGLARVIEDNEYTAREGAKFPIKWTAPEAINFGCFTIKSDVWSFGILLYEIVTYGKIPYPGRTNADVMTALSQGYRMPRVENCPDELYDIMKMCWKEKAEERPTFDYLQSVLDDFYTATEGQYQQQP

PANC-1 = assay: Antiproliferative activity against human PANC-1 cells assessed as cell growth inhibition measured after 42 hrs by MTS assay; format: functional, cell-based; details: PANC-1, 42 h
[12] = biological target: Proto-oncogene tyrosine-protein kinase Src (Homo sapiens, UniProt P12931); assay: Inhibition of recombinant c-Src (unknown origin)
MV4-11 = assay: Cytotoxicity in human MV4-11 cells assessed as cell growth inhibition incubated for 48 hrs by propidium iodide staining based flow cytometry assay; format: functional
LNCaP = assay: Cytotoxicity against human LNCaP cells assessed as cell growth inhibition by MTT assay; format: functional, cell-based
LoVo = assay: Cytotoxicity against human LoVo cells assessed as cell growth inhibition by MTT assay; format: functional, cell-based
PC-3 = assay: Cytotoxicity against human PC-3 cells assessed as cell growth inhibition by MTT assay; format: functional, cell-based
DU-145 = assay: Cytotoxicity against human DU-145 cells assessed as cell growth inhibition by MTT assay; format: functional, cell-based
MCF7 [13] = assay: Cytotoxicity against human MCF7 cells assessed as cell growth inhibition by MTT assay; format: functional, cell-based
[14] = biological target: T3, Receptor-type tyrosine-protein kinase FLT3 (Homo sapiens, UniProt P36888); assay: Inhibition of FLT3 (unknown origin)
T3 sequence (P36888 whole entry): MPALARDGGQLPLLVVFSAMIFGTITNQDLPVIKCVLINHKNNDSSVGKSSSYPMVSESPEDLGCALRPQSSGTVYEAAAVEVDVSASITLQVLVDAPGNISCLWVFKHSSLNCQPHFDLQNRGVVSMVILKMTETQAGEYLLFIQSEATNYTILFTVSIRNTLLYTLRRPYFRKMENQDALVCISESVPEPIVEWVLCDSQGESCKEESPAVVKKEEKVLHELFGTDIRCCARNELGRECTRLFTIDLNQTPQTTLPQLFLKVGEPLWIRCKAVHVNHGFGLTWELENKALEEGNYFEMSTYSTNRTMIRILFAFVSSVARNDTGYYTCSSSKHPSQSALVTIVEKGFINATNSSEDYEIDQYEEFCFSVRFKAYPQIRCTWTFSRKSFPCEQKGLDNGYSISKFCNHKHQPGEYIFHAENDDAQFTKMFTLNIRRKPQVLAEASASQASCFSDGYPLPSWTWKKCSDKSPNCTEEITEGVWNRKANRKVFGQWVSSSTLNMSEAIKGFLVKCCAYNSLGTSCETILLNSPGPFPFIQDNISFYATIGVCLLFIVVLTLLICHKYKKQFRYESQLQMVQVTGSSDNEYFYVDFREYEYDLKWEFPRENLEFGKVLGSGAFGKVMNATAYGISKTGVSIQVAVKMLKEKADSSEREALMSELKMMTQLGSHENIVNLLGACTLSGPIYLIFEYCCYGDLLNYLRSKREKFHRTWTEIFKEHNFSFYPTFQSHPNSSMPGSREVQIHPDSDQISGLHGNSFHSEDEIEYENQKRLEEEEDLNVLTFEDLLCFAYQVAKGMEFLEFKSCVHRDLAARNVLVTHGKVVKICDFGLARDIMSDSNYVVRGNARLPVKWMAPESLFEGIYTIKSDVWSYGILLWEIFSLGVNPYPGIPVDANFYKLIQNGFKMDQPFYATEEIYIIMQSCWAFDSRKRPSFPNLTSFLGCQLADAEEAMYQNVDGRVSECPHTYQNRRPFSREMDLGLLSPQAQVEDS

[15] = biological target: T3, Receptor-type tyrosine-protein kinase FLT3; assay: Inhibition of recombinant FLT3 (unknown origin) by HTRF assay
[16] = biological target: T2, Tyrosine-protein kinase JAK2; assay: Inhibition of JAK2 (unknown origin) by TR-FRET assay
HT-29 = assay: Antiproliferative activity against human HT-29 cells assessed as cell growth inhibition measured after 72 hrs by tetrazolium staining based assay; format: functional; details: HT-29, 72 h
[17] = biological target: ALK tyrosine kinase receptor (Homo sapiens, UniProt Q9UM73); assay: Inhibition of ALK (unknown origin) by TR-FRET assay
[18] = biological target: Hepatocyte growth factor receptor (Homo sapiens, UniProt P08581); assay: Inhibition of c-met (unknown origin) by TR-FRET assay
[19] = biological target: Indoleamine 2,3-dioxygenase 1 (Homo sapiens, UniProt P14902); assay: Inhibition of IDO1 in human Hela cells assessed as reduction in N-formylkynurenine formation incubated for 30 mins; format: cell-based
Chain of Indoleamine 2,3-dioxygenase 1 (P14902 whole entry): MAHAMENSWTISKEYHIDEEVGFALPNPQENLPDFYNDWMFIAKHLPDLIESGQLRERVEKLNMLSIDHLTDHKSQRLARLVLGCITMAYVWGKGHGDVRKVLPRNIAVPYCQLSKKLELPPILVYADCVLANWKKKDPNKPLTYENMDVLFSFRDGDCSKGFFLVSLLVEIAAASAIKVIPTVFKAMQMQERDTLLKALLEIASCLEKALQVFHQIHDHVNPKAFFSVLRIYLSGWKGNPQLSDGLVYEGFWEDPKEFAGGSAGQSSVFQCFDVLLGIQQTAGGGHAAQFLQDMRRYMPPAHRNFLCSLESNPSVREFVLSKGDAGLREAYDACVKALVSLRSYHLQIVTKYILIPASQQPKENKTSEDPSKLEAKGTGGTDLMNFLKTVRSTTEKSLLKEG

K562 [20] = assay: Antiproliferative activity against human K562 cells assessed as cell growth inhibition measured after 48 hrs by CCK-8 assay; format: functional, cell-based; details: K562, 48 h
[21] = biological target: T1, Cyclin-dependent kinase 5/CDK5 activator 1; assay: Inhibition of GST-fused CDK5/p25 (unknown origin); format: protein-complex assay
K562 [22] = assay: Antiproliferative activity against imatinib treated human K562 cells assessed as cell growth inhibition measured after 72 hrs by MTT assay; format: functional, cell-based; details: K562, 72 h
K562 [23] = assay: Antiproliferative activity against human K562 cells assessed as cell growth inhibition measured after 72 hrs by MTT assay; format: functional, cell-based; details: K562, 72 h
OCI-AML2 [24] = assay: Antiproliferative activity against human OCI-AML2 cells assessed as cell growth inhibition measured after 72 hrs by MTT assay; format: functional, cell-based; details: OCI-AML2, 72 h
OCI-AML2 [25] = assay: Antiproliferative activity against imatinib and Ara-C resistant human OCI-AML2 cells assessed as cell growth inhibition measured after 72 hrs by MTT assay; format: functional, cell-based; details: OCI-AML2, 72 h
HeLa = assay: Cytotoxicity against human HeLa cells assessed as cell growth inhibition measured after 24 hrs by SRB assay
HL-60 = assay: Cytotoxicity against human HL-60 cells assessed as cell growth inhibition measured after 24 hrs by MTT assay; details: HL-60, 24 h, read-out: LC50
U-118-MG = assay: cells; details: Homo sapiens, 24 h
Description: Cytotoxicity against human U-118-MG cells assessed as cell growth inhibition measured after 24 hrs by MTT assay

U-87 MG = assay: Cytotoxicity against human U87 cells assessed as cell growth inhibition measured after 24 hrs by MTT assay
[26] = Inhibition of CDK2/cyclin E (unknown origin); design: species or system Homo sapiens

Chain of Aurora kinase B (Q96GD4 whole entry): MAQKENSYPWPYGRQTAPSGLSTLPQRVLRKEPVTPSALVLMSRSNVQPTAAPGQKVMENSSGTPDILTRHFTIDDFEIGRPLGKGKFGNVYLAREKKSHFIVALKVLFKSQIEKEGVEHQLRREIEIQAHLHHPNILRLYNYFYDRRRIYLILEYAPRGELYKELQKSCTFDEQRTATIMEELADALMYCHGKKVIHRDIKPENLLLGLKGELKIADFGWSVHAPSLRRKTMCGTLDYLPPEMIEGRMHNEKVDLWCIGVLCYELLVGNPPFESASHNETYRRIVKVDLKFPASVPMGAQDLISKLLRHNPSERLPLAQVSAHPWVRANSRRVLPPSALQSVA

O=C1Nc2c(Br)cccc2/C1=C1/Nc2ccccc2/C1=N\O
pIC50 (Aurora kinase B): 5.34
pIC50 [1]: 5.39
IC50 [2]: 32 µM
pIC50 (Aurora kinase C): 7.00

COc1ccc2c(c1)/C(=C1/Nc3ccccc3/C1=N\OCCO[C@@H]1O[C@H](CO)[C@@H](O)[C@H](O)[C@H]1O)C(=O)N2
pIC50 (LXFL 529): 6.30
pIC50 (HCT-116): 6.30
pIC50 (MCF7 [3]): 5.92

O=C1Nc2ccc(S(=O)(=O)O)cc2/C1=C1/Nc2ccccc2C1=O
pIC50 [4]: 7.26
pIC50 [5]: 7.19

Cl.Cl.O=C1Nc2cc(Br)ccc2/C1=C1/Nc2ccccc2/C1=N\OCCN1CCNCC1
IC50 [6]: 0.0013 µM

CC(=O)O/N=C1/C(=C2/C(=O)Nc3c(Br)cccc32)Nc2ccccc21
pIC50 (Aurora kinase B): 5.10
pIC50 (Aurora kinase A): 4.70
pIC50 (Aurora kinase C): 7.00

O=C1Nc2ccccc2/C1=C1/Nc2ccccc2/C1=N\OCC1CO1 (stereo unspecified)
pIC50 (SK-N-SH): 7.15
pIC50 (IMR-32): 6.80

COc1ccc2c(c1)/C(=C1/Nc3ccccc3/C1=N\OCC(O)CO)C(=O)N2 (stereo unspecified)
pIC50 [7]: 7.97
pIC50 [8]: 7.97
pIC50 [9]: 7.97
pIC50 (MIA PaCa-2): 6.12
pIC50 [10]: 7.97
pIC50 (BXPC-3): 6.12
pIC50 [11]: 7.97
pIC50 (PANC-1): 6.12
pIC50 [12]: 7.97

COC(=O)c1ccc2c(c1)/C(=C1/Nc3ccccc3/C1=N\O)C(=O)N2
GI50 (MV4-11): 0.0541 µM

CCN1C(=O)/C(=C2\Nc3ccccc3\C2=N/O)c2ccccc21
pIC50 (LNCaP): 4.99
pIC50 (LoVo): 5.07
pIC50 (PC-3): 4.87
pIC50 (DU-145): 5.13
pIC50 (MCF7 [13]): 5.17

O=C1Nc2ccc(C(=O)O)cc2/C1=C1/Nc2ccccc2/C1=N\O
GI50 (MV4-11): > 1 µM
pIC50 [14]: 8.10
pIC50 [15]: 8.10

O=C1Nc2ccc(C(=O)N3CCCCC3)cc2/C1=C1/Nc2ccccc2/C1=N\O
pIC50 [16]: < 5.00
pIC50 (HT-29): 5.37
pIC50 [17]: < 5.00
pIC50 [18]: < 5.00

O=C1CCC(N2C(=O)c3cccc(-n4cc(COCCOCCOCCN5C(=O)/C(=C6\Nc7ccccc7C6=O)c6ccccc65)nn4)c3C2=O)C(=O)N1 (stereo unspecified)
pIC50 [19]: 4.47
pIC50 (K562 [20]): 4.37

CN1C(=O)/C(=C2\Nc3ccccc3\C2=N/O)c2ccccc21
pIC50 [4]: 4.14
pIC50 (LNCaP): 4.16
pIC50 (LoVo): < 4.00
IC50 [2]: > 100 µM
pIC50 [21]: < 4.00
pIC50 (MCF7 [13]): 4.23

O=C1Nc2ccc(NC(=O)C(c3ccccc3)c3ccccc3)cc2/C1=C1/Nc2ccccc2/C1=N\O
pIC50 (K562 [22]): 5.44
pIC50 (K562 [23]): 5.54
pIC50 (OCI-AML2 [24]): 5.62
pIC50 (OCI-AML2 [25]): 5.63

Cc1cn(C2CC(n3cc(COCCOCCOCCN4C(=O)/C(=C5\Nc6ccccc6C5=O)c5ccccc54)nn3)C(CO)O2)c(=O)[nH]c1=O (stereo unspecified)
pIC50 [19]: 4.26
pIC50 (K562 [20]): 4.47

O=C1Nc2ccccc2/C1=C1/Nc2ccccc2C1=O [INDIRUBIN]
pIC50 (HeLa): 4.40
CC50 (HL-60): 98.1 mg/L (≈ 374 µM)
pIC50 (U-118-MG): 4.90
pIC50 (U-87 MG): 4.90
pIC50 [26]: 5.12
